# According to the supplement of paper PMC10307832:
# Assays:
# Assay in all cases: relative viability (nuclei count vs DMSO), 5 days (fraction); higher = more cells survive
# ALW-II-49-7 + AZD7762 = compound: Cc1ccc(C(=O)Nc2cccc(C(F)(F)F)c2)cc1Nc1cncc(C(N)=O)c1 [ALW-II-49-7] + NC(=O)Nc1cc(-c2cccc(F)c2)sc1C(=O)N[C@H]1CCCNC1 [AZD7762] (partner 0.2 µM)
# How it was run: (§1)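 Relative viability was taken as the ratio of nuclei in treated wells to nuclei in vehicle wells. Lung cancer cell lines in 1536-well plates received compounds by pin tool one day after seeding, either one drug alone or a fixed anchor-drug dose plus five library-drug doses (not always all listed) in √10 steps. Nuclei were counted on 4× images after 5 days of treatment, and values are medians of duplicate plates.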
# Dasatinib + Alpelisib = compound: Cc1nc(Nc2ncc(C(=O)Nc3c(C)cccc3Cl)s2)cc(N2CCN(CCO)CC2)n1 [Dasatinib] + Cc1nc(NC(=O)N2CCC[C@H]2C(N)=O)sc1-c1ccnc(C(C)(C)C(F)(F)F)c1 [Alpelisib] (partner 2 µM)
# How it was run: as §1
# ALW-II-49-7 + Linsitinib = compound: Cc1ccc(C(=O)Nc2cccc(C(F)(F)F)c2)cc1Nc1cncc(C(N)=O)c1 [ALW-II-49-7] + C[C@]1(O)C[C@@H](c2nc(-c3ccc4ccc(-c5ccccc5)nc4c3)c3c(N)nccn32)C1 [Linsitinib] (partner 1 µM)
# How it was run: as §1
# XMD13-2 + AZD7762 = compound: C1CC1C(=O)NC2=NNC3=C2C=CC(=C3)C4=CC(=CC=C4)C(=O)NC5CC5 [XMD13-2] + NC(=O)Nc1cc(-c2cccc(F)c2)sc1C(=O)N[C@H]1CCCNC1 [AZD7762] (partner 0.2 µM)
# How it was run: as §1
Cell Line,relative viability (ALW-II-49-7 + AZD7762; first compound 0.08 µM),relative viability (ALW-II-49-7 + AZD7762; first compound 0.253 µM),relative viability (ALW-II-49-7 + AZD7762; first compound 0.8 µM),relative viability (ALW-II-49-7 + AZD7762; first compound 2.53 µM),relative viability (ALW-II-49-7 + AZD7762; first compound 8 µM),relative viability (Dasatinib + Alpelisib; first compound 0.005 µM),relative viability (Dasatinib + Alpelisib; first compound 0.01581 µM),relative viability (Dasatinib + Alpelisib; first compound 0.05 µM),relative viability (Dasatinib + Alpelisib; first compound 0.1581 µM),relative viability (Dasatinib + Alpelisib; first compound 0.5 µM),relative viability (ALW-II-49-7 + Linsitinib; first compound 0.08 µM),relative viability (ALW-II-49-7 + Linsitinib; first compound 0.253 µM),relative viability (ALW-II-49-7 + Linsitinib; first compound 0.8 µM),relative viability (ALW-II-49-7 + Linsitinib; first compound 8 µM),relative viability (XMD13-2 + AZD7762; first compound 0.05 µM),relative viability (XMD13-2 + AZD7762; first compound 0.1581 µM),relative viability (XMD13-2 + AZD7762; first compound 0.5 µM),relative viability (XMD13-2 + AZD7762; first compound 1.581 µM),relative viability (XMD13-2 + AZD7762; first compound 5 µM),relative viability (ALW-II-49-7 + Linsitinib; first compound 2.53 µM)
BEN,0.723,0.769,0.666,0.799,0.765,0.857,0.536,0.611,0.342,0.365,0.69,0.865,0.99,0.936,0.799,0.777,0.638,0.594,0.729,–
CAL-12T,0.5,0.641,0.744,0.349,0.588,1.15,1.03,1.62,1.13,0.355,1.01,0.965,0.736,0.701,0.625,0.708,0.583,0.563,0.933,0.796
EKVX,0.665,0.619,0.821,0.574,0.646,0.774,0.637,0.651,0.557,0.145,0.972,0.91,1.05,0.815,0.888,0.689,0.54,–,0.719,0.699
EMC-BAC-2,1.09,1.21,0.916,1.11,0.896,0.632,0.478,0.466,0.285,0.194,0.811,0.814,0.894,0.747,1.34,1.16,1.06,0.984,0.864,0.836
EPLC-272H,0.169,0.251,0.278,0.248,0.198,1.08,0.913,1.02,0.777,0.244,0.954,0.922,1.15,1.18,0.294,0.237,0.0561,0.156,0.231,1.26
H3255,0.938,1.06,0.874,0.801,0.574,0.68,0.621,0.63,0.434,0.24,0.832,0.892,0.94,0.9,0.949,1.09,0.829,0.847,0.855,0.884
HARA,0.325,0.28,0.3,0.375,0.347,0.778,0.723,0.57,0.27,0.193,0.914,0.77,0.929,1.02,0.301,0.557,0.263,0.376,0.37,0.968
HCC-15,1.22,1.14,1,1.39,1.25,0.875,0.783,0.779,0.53,0.528,0.963,0.931,0.973,0.947,1.35,1.15,1.17,1.22,1.24,0.971
HCC-44,0.992,1.02,1.03,1.03,0.964,0.789,0.705,0.676,0.271,0.183,0.6,0.658,0.686,0.839,0.944,0.98,0.969,1.05,1.02,0.619
HCC-78,0.614,0.693,0.684,0.611,0.713,0.259,0.261,0.304,0.257,0.176,0.485,0.473,0.609,0.487,0.763,0.973,0.557,0.475,0.705,0.5
HCC-366,0.264,0.259,0.24,0.245,0.203,0.096,0.174,0.141,0.151,0.103,0.68,0.636,0.698,0.791,0.325,0.388,0.308,0.427,0.355,0.682
HCC-827,0.208,0.241,0.187,0.183,0.19,1.01,0.737,0.757,0.374,0.123,0.94,1.06,0.962,1.08,0.199,0.22,0.207,0.202,0.224,0.981
HOP-62,0.386,0.455,0.648,0.619,0.586,1.27,1.02,0.838,0.679,0.272,0.889,1.13,1.03,0.813,0.917,0.799,0.867,0.598,0.409,0.866
LC-2-ad,0.844,0.824,0.756,0.805,0.93,0.854,0.703,0.699,0.276,0.169,0.834,0.86,0.764,0.836,0.996,0.94,0.896,0.928,0.826,0.86
LCLC-97TM1,0.228,0.418,0.328,0.156,0.179,0.266,0.246,0.24,0.254,0.143,0.19,0.171,0.174,0.155,0.249,0.26,0.231,–,0.254,0.176
LCLC-103H,0.742,0.817,0.756,0.649,0.656,0.978,1.06,0.818,0.647,0.328,0.994,1.15,1.16,1.05,0.774,0.778,0.768,0.818,0.85,1.15

Cell Line,relative viability (ALW-II-49-7 + AZD7762; first compound 0.08 µM),relative viability (ALW-II-49-7 + AZD7762; first compound 0.253 µM),relative viability (ALW-II-49-7 + AZD7762; first compound 0.8 µM),relative viability (ALW-II-49-7 + AZD7762; first compound 2.53 µM),relative viability (ALW-II-49-7 + AZD7762; first compound 8 µM),relative viability (Dasatinib + Alpelisib; first compound 0.005 µM),relative viability (Dasatinib + Alpelisib; first compound 0.01581 µM),relative viability (Dasatinib + Alpelisib; first compound 0.05 µM),relative viability (Dasatinib + Alpelisib; first compound 0.1581 µM),relative viability (Dasatinib + Alpelisib; first compound 0.5 µM),relative viability (ALW-II-49-7 + Linsitinib; first compound 0.08 µM),relative viability (ALW-II-49-7 + Linsitinib; first compound 0.253 µM),relative viability (ALW-II-49-7 + Linsitinib; first compound 0.8 µM),relative viability (ALW-II-49-7 + Linsitinib; first compound 8 µM),relative viability (XMD13-2 + AZD7762; first compound 0.05 µM),relative viability (XMD13-2 + AZD7762; first compound 0.1581 µM),relative viability (XMD13-2 + AZD7762; first compound 0.5 µM),relative viability (XMD13-2 + AZD7762; first compound 1.581 µM),relative viability (XMD13-2 + AZD7762; first compound 5 µM),relative viability (ALW-II-49-7 + Linsitinib; first compound 2.53 µM)
LK-2,0.447,0.437,0.427,–,0.332,1.04,0.764,0.449,0.312,0.275,0.546,0.722,0.399,0.654,0.626,0.499,0.476,0.431,0.689,–
LOU-NH91,0.567,0.774,0.782,–,0.596,0.69,0.584,0.572,0.441,0.34,0.928,0.97,0.93,0.977,0.938,0.767,0.78,0.725,0.793,0.528
LU99A,–,0.376,0.294,0.312,0.626,0.494,0.5,0.477,0.288,0.192,0.569,0.464,0.573,0.589,0.378,0.501,0.442,0.327,0.312,0.421
LXF-289,1.08,1.11,0.981,1.26,1.22,1.05,1.05,0.666,0.154,0.109,0.935,0.958,1.04,1.09,1.14,1.25,1.2,1.29,1.17,1.1
NCI-H23,0.163,0.263,0.147,0.227,0.224,0.597,0.549,0.615,0.403,0.323,0.56,0.55,0.68,0.618,0.199,0.256,0.231,0.209,0.296,0.591
NCI-H322M,0.557,0.584,0.484,0.698,0.481,0.855,0.773,0.696,0.459,0.203,0.846,0.902,0.909,0.673,0.461,0.602,0.543,–,0.653,0.836
NCI-H358,0.51,0.711,0.405,–,0.524,0.726,0.585,0.458,0.24,0.204,0.801,0.661,0.816,0.742,0.633,0.537,0.515,0.442,0.414,0.725
NCI-H441,1.18,1.24,1.07,0.817,1.1,0.878,0.874,0.574,0.355,0.218,0.529,0.61,0.432,0.508,1.17,1.29,1.18,1.14,1.04,0.496
NCI-H460,0.567,0.863,0.663,0.665,0.456,0.286,0.179,0.159,0.122,0.0551,0.464,0.667,0.766,0.566,0.708,0.751,0.633,0.66,0.683,0.566
NCI-H596,1.15,1.23,1.12,1.14,1.24,0.387,0.436,0.378,0.326,0.221,1.1,1.08,1.11,1.1,1.14,0.945,1.09,1.18,1.2,1.06
NCI-H647,0.348,0.402,0.419,–,0.29,0.779,0.419,0.319,0.166,0.146,1.1,1.35,1.03,1.05,0.558,0.521,0.532,0.406,0.248,1.04
NCI-H650,1.02,0.967,1.05,0.866,0.678,1.16,1.05,1.04,0.726,0.428,0.836,0.793,0.941,0.54,1.22,1.02,1.14,0.847,1.43,0.811
NCI-H727,0.495,0.68,0.611,0.716,0.591,0.453,0.375,0.397,0.219,0.234,0.303,0.331,0.316,0.37,0.807,0.665,0.583,0.505,0.776,0.283
NCI-H838,0.921,1.04,0.889,0.702,0.886,0.82,0.678,0.585,0.308,0.233,1.06,1.08,1.06,1.15,0.986,1.04,1.06,0.967,0.954,1.14
NCI-H1355,0.71,0.805,0.738,0.695,0.606,0.674,0.621,0.652,0.53,0.297,0.731,0.872,0.797,0.758,0.854,0.881,0.787,0.636,0.793,0.752
NCI-H1395,0.381,0.43,0.364,–,0.362,0.896,0.926,0.947,0.544,0.519,1.09,1.22,1.11,1.08,0.408,0.404,0.423,0.38,0.419,0.305
